Experiments:
CYP2C9 = CYP2C9 (Homo sapiens, UniProt P11712); experiment: P450 cocktail inhibition assay, CYP2C9; format: in vitro ADME; settings: at 10 μM
Protocol: (§1) P450s inhibition for four major isoforms are evaluated using a cocktail inhibition assay where the metabolism of specific marker substrate (CYP1A2 phenaceten […] to acetaminophen); CYP2C9, tolbutamide hydroxylation to hydrocytolbutamide; CYP2D6, bufuralol hydroxylation to […]; and CYP3A4, midazolam hydroxylation to 1′-Hydroxymidazolam) in the presence or absence of 10 TM probe compound is evaluated. The concentration of each marker substrate is approximately its Km. […] Specific inhibitors for each isoform are included in each run to validate the system.

CYP3A4 = CYP3A4 (Homo sapiens, UniProt P08684); experiment: P450 cocktail inhibition assay, CYP3A4; format: in vitro ADME; settings: at 10 μM
Protocol: as §1

[1] = test system: JNK3-dependent phosphorylation of APP at T668; experiment: JNK3 inhibition assay in rat primary neuron cultures (Western blot, anisomycin activated); format: cell-based; settings: even at a concentration as low as 10 nM; FIGS. 5A-5C
Protocol: Both hippocampal and cortical neurons were isolated from E18 rat embryos and cultured in NbActive 1 medium that contains B27 (Brainbits, LLC) plus penicillin/streptomycin (Life Technologies). At the 7th day in culture, cells were treated with different concentrations of inhibitors diluted in DMSO and 80 ng/ml Anisomycin for 30 min to activate the endogenous JNK3. At the end of incubation time, whole cell lysates were prepared in RIPA buffer containing 50 mM Tris (pH 8.0), 150 mM NaCl, 2 mM EDTA, 1% NP-40, 0.5% deoxycholate supplemented with 10 mM Na pyrophosphate, 1 mM sodium orthovanadate, 25 mM NaF, 10 μg/ml leupeptin, 10 μg/ml aprotinin, 1 mM β-glycerophosphate, and 2 mM PMSF. The lysates were subjected to Western blotting to detect whether inhibitors block JNK3-dependent phosphorylation of APP at T668 and c-jun at S73. Phospho-APP^T668, phosphor-c-jun^S73, APP, and c-jun antibodies were from Cell Signaling Technology.

CYP1A2 = molecular target: T1, CYP1A2 (Homo sapiens, UniProt P05177); experiment: P450 cocktail inhibition assay, CYP1A2; format: in vitro ADME; settings: at 10 μM
T1 sequence (P05177 1-516): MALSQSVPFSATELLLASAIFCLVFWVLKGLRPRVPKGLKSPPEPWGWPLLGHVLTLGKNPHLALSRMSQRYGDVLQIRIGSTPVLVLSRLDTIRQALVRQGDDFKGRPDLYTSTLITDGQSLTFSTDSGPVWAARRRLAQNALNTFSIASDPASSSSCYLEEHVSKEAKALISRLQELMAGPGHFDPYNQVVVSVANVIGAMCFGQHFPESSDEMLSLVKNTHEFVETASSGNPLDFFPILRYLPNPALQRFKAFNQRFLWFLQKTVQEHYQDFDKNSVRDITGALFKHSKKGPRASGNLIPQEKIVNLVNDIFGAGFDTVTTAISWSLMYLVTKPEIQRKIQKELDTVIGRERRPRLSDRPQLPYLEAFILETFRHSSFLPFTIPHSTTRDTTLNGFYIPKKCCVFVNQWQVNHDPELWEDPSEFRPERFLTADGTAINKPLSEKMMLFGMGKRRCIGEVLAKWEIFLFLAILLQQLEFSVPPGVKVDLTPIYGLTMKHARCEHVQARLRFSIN
Protocol: as §1

[2] = Microsomal stability, human; format: in vitro ADME; settings: human microsomes
CYP2D6 = CYP2D6 (Homo sapiens, UniProt P10635); experiment: P450 cocktail inhibition assay, CYP2D6; format: in vitro ADME; settings: at 10 μM
Protocol: as §1

[3] = Microsomal stability, mouse; format: in vitro ADME; settings: mouse microsomes
SHSY5Y cells = experiment: MTT cytotoxicity assay; format: cell-based; parameters: dose or concentration left out as unconfirmed; settings: 48 hrs, average of ≥2 experiments;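 note: compounds tested at 10 µM final concentration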
Protocol: A day before the assay, cells were plated at 50,000/well in 96 well plates in the culture medium. […] After the incubation, cells were subjected to MTT assay using Vybrant MTT Cell Proliferation kit as directed by the vendor (Life Technologies).

JNK2 = JNK2 (Homo sapiens, UniProt P45984); experiment: JNK2 homogeneous time-resolved fluorescence enzyme inhibition assay; format: biochemical; settings: for R: ratio of IC50 values of JNK2 over JNK3: isoform selectivity against JNK2; for IC50: mean of ≥2 experiments, read-out: Biochemical inhibition IC50 JNK2
Protocol: (§2) A 10-point titration of all compounds was carried out in 3-fold dilutions from 10 μM to 0.5 nM.

JNK3α1 = JNK3α1 (Homo sapiens, UniProt P53779); format: biochemical; settings: for IC50: mean of ≥2 experiments, read-out: Biochemical inhibition IC50 JNK3
Protocol: as §2

JNK1 = JNK1 (Homo sapiens, UniProt P45983); experiment: JNK1 homogeneous time-resolved fluorescence enzyme inhibition assay; format: biochemical; settings: for R: ratio of IC50 values of JNK1 over JNK3: isoform selectivity against JNK1; for IC50: mean of ≥2 experiments, read-out: Biochemical inhibition IC50 JNK1
Protocol: as §2

p38α = p38α (Homo sapiens, UniProt Q16539); experiment: p38 enzyme inhibition assay; settings: mean of ≥2 experiments; read-out: Biochemical inhibition IC50 p38α
p38α, sequence (Q16539 whole entry): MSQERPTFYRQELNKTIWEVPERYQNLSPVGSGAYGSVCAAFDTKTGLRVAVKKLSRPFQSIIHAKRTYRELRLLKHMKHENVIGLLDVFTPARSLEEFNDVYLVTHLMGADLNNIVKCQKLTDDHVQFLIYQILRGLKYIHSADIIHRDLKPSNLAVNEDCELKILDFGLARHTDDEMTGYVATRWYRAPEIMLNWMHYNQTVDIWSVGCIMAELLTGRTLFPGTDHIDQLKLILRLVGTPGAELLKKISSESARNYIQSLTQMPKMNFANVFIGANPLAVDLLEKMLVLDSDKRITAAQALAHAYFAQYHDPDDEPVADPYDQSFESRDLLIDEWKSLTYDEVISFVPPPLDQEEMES

JNK2, sequence (P45984 whole entry, canonical isoform): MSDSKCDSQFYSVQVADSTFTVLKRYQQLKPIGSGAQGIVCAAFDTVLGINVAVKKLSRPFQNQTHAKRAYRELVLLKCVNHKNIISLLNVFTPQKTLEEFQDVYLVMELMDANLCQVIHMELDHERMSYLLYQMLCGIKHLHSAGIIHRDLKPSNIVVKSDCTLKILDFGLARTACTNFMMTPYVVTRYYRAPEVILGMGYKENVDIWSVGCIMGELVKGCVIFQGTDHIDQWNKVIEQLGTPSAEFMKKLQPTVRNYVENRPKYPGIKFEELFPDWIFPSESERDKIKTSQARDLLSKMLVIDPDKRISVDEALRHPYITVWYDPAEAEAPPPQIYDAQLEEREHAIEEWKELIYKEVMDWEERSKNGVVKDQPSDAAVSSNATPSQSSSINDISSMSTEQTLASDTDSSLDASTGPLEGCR
CYP3A4, sequence (P08684 whole entry): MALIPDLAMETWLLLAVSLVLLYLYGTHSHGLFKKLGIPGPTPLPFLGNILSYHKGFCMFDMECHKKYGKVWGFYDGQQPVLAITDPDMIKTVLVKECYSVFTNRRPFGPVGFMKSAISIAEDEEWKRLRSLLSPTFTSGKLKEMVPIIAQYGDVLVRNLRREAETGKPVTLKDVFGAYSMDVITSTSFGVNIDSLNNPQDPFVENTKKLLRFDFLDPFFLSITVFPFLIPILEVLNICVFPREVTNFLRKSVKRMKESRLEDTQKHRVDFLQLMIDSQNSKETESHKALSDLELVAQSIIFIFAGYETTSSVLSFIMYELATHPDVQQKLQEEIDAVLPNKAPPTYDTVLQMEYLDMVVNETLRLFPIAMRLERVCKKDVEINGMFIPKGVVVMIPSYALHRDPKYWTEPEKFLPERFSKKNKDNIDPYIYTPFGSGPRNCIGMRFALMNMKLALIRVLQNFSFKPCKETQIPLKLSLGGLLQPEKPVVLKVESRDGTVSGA
CYP2C9, sequence (P11712 whole entry, canonical isoform): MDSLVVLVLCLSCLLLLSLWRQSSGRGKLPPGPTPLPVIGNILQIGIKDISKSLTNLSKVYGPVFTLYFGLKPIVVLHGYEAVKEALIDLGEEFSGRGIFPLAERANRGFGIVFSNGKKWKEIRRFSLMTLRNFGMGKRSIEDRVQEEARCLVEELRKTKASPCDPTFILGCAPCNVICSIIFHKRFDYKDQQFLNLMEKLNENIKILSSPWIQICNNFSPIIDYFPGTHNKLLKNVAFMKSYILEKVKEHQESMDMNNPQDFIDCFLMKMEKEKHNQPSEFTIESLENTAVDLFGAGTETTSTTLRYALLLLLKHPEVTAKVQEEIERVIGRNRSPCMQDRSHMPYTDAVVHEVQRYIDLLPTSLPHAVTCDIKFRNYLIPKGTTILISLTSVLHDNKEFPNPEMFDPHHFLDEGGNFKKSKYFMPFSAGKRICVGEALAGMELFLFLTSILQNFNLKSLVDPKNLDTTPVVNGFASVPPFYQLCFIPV
JNK1, sequence (P45983 whole entry, canonical isoform): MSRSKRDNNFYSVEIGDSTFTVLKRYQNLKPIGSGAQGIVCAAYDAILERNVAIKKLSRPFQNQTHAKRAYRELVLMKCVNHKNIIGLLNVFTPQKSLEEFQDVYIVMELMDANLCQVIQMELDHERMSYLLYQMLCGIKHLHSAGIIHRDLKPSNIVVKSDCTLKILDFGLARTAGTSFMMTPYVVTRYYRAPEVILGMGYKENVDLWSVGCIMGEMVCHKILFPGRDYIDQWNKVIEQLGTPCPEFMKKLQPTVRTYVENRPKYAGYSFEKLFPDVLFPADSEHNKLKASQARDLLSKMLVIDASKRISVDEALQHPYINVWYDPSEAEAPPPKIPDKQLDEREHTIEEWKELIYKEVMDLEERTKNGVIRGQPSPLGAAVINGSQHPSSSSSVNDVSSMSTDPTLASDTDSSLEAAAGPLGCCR
JNK3α1, sequence (P53779 1-422 isoform P53779-2): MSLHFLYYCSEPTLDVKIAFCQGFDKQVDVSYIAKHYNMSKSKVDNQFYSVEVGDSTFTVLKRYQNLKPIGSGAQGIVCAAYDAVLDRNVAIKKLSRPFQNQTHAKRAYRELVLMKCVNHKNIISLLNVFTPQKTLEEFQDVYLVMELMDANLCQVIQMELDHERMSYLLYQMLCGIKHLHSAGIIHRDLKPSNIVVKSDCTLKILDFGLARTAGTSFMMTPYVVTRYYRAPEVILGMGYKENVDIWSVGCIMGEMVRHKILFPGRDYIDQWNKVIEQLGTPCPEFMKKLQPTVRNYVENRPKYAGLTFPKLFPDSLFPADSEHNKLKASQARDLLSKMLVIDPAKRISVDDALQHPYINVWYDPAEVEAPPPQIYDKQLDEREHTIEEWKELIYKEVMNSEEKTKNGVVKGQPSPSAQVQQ
CYP2D6, sequence (P10635 whole entry): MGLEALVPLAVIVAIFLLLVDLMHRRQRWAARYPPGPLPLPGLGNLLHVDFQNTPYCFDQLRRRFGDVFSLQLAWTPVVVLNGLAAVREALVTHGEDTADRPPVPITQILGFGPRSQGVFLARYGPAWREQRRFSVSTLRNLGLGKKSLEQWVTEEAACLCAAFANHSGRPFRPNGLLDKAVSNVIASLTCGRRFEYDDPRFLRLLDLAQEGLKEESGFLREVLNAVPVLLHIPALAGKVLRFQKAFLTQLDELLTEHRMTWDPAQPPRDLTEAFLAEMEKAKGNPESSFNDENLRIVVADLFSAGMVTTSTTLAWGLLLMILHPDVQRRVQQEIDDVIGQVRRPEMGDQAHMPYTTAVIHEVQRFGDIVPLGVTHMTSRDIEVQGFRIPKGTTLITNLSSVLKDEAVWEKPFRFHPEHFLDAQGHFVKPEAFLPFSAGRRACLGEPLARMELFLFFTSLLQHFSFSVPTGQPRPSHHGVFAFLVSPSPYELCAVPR

Compound	CYP-450 % inh. 2C9 (CYP2C9) [%]	CYP-450 % inh. 3A4 (CYP3A4) [%]	inhibition of phosphorylation of residue T668 of APP [1]	CYP-450 % inh. 1A2 (CYP1A2) [%]	Mic. stability t1/2 Human [2] [min]	CYP-450 % inh. 2D6 (CYP2D6) [%]	Mic. stability t1/2 Mouse [3] [min]	MTT cell viability (SHSY5Y cells) [%]	isoform selectivity against JNK2 vs JNK3 (JNK2)	R: ratio of IC50 values of JNK2 over JNK3 (JNK2)	IC50 (JNK2) [µM]	IC50 (JNK3α1) [µM]	R: ratio of IC50 values of JNK1 over JNK3 (JNK1)	IC50 (JNK1) [µM]	IC50 (p38α) [µM]	reduction in JNK3 inhibitions (JNK3α1; compared to 16) [fold]
O=C(Nc1cnn(-c2csc(C(=O)NC3COC3)c2)c1)Nc1ccc(F)cc1Cl [Compound 26, 4-(4-(3-(2-chloro-4-fluorophenyl)ureido)-1H-pyrazol-1-yl)-N-(oxetan-3-yl)thiophene-2-carboxamide]	47	−5	significantly inhibited	38	>120	30	68	104	–	–	–	–	–	–	–	–
O=C(Nc1cnn(-c2csc(C(=O)NC3CC3)c2)c1)Nc1ccccc1Cl [Compound 8, 4-(4-(3-(2-chlorophenyl)ureido)-1H-pyrazol-1-yl)-N-cyclopropylthiophene-2-carboxamide]	−4	−45	–	−2	49	−29	35	103	around 40 folds	40	3.2	0.08	93	7.4	> 20	–
Cc1sc(C(=O)N[C@@H]2CCOC2)cc1-n1cc(NC(=O)Nc2c(F)cccc2Cl)cn1 [Compound 28, (R)-4-(4-(3-(2-chloro-6-fluorophenyl)ureido)-1H-pyrazol-1-yl)-5-methyl-N-(tetrahydrofuran-3-yl)thiophene-2-carboxamide]	35	26	significantly inhibited	34	40	17	38	114	–	–	–	–	–	–	–	7
O=C(Nc1cnn(-c2csc(C(=O)NCC3CCOCC3)c2)c1)Nc1ccccc1Cl [Compound 24, 4-(4-(3-(2-chlorophenyl)ureido)-1H-pyrazol-1-yl)-N-((tetrahydro-2H-pyran-4-yl)methyl)thiophene-2-carboxamide]	64	21	–	36	8	32	15	95	–	34	0.81	0.024	63	1.5	> 20	–
